Measurements: patent US20160257697A1, “THIOPHENE-SUBSTITUTED TETRACYCLIC COMPOUNDS AND METHODS OFUSE THEREOF FOR THE TREATMENT OF VIRAL DISEASES” (priority 2013, published 2016)
Like-named read-outs stand apart in the source and are kept apart here.

Experiments:
Assay in all cases: microbe, parasite or virus in culture
Format in all cases: cell-based, Hepatitis C virus (HCV)
HCV replicon 1AY93H = settings: Replicon Assay A
Outline: (§1)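 Three-day treatment of replicon cells (2000/well, 5% FBS, 0.5% DMSO), followed by TaqMan RT-PCR of replicon RNA with cyclophilin as internal control.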

HCV replicon 1A = settings: Replicon Assay A
Outline: as §1

HCV replicon 2B = settings: Replicon Assay A
Outline: as §1

HCV replicon 1AQ30D = settings: Replicon Assay B
HCV replicon 1B = settings: Replicon Assay B
[1] = Hepatitis C virus, read-out: 1A Y93H IC50 (nM), replicon 1AY93H
[2] = Hepatitis C virus, read-out: 2B IC50 (nM), replicon 2B
[3] = Hepatitis C virus, read-out: 1A Q30D IC50 (nM), replicon 1AQ30D
[4] = read-out: 1A Y93H IC50, replicon 1AY93H
[5] = read-out: 1A Q30D IC50, replicon 1AQ30D
[6] = read-out: 1A Y93H IC50, HCV replicon 1A Y93H
[7] = read-out: 2B IC50, HCV replicon 2B
[8] = Hepatitis C virus, read-out: 1A Q30D IC50, HCV replicon 1A Q30D
[9] = Hepatitis C virus, HCV replicon 1B

Compound | IC50 (HCV replicon 1A; Hepatitis C virus, replicon 1A) | IC50 (HCV replicon 2B; [2]) | IC50 (HCV replicon 1AQ30D; [3]) | IC50 (HCV replicon 1B; Hepatitis C virus, replicon 1B) | IC50 (HCV replicon 1AY93H; [4]) | IC50 (HCV replicon 1A; replicon 1A) | IC50 (HCV replicon 2B; read-out: 2B IC50, replicon 2B) | further results
CCc1ccc(C2Oc3cc(-c4cnc([C@@H]5CCCN5C(=O)[C@@H](NC(=O)OC)C(C)C)[nH]4)cc(F)c3-c3cc4cc(-c5cnc([C@@H]6CCCN6C(=O)[C@H](NC(=O)OC)C6C[C@@H](C)O[C@@H](C)C6)[nH]5)ccc4n32)s1 (stereo partly shown) [Compound 144] | 3 pM | 0.022 nM | 0.057 nM | 2.1 pM | – | – | – | IC50 (HCV replicon 1AY93H; [1]): 0.003 nM
COC(=O)NC(C(=O)N1CCC[C@H]1c1ncc(-c2cc(F)c3c(c2)OC(c2ccc(C4CC4)s2)n2c-3cc3cc(-c4cnc([C@@H]5CCCN5C(=O)[C@@H](NC(=O)OC)C(C)C)[nH]4)ccc32)[nH]1)C1CCOC(C)(C)C1 (single isomer, unassigned) [Compound 216] | – | – | – | – | 0.18 nM | 1.7 pM | 0.31 nM | IC50 (HCV replicon 1AQ30D; [5]): 1.03 nM; IC50 (HCV replicon 1B; replicon 1B): 3.3 pM
COC(=O)N[C@H](C(=O)N1CCC[C@H]1c1ncc(-c2cc(F)c3c(c2)OC(c2ccc(C(C)C)s2)n2c-3cc3cc(-c4cnc([C@@H]5CCCN5C(=O)[C@@H](NC(=O)OC)C(C)C)[nH]4)ccc32)[nH]1)C(C)C (single isomer, unassigned) [Compound 35] | 1.7 pM | 1.43 nM | 11.5 nM | 1.4 pM | – | – | – | IC50 (HCV replicon 1AY93H; [1]): 0.62 nM
COC(=O)N[C@H](C(=O)N1CCC[C@H]1c1ncc(-c2cc(F)c3c(c2)OC(c2ccc(C4CC4)s2)n2c-3c(F)c3cc(-c4cnc([C@@H]5CCCC5C(=O)[C@@H](NC(=O)OC)C5CCOCC5)[nH]4)ccc32)[nH]1)C(C)C (single isomer, unassigned) [Compound 362] | 1.1 pM | – | – | 1.8 pM | 0.0775 nM | – | 0.0486 nM | IC50 (HCV replicon 1AQ30D; [5]): 0.981 nM
COC(=O)NC(C(=O)N1CCC[C@H]1c1ncc(-c2ccc3c(c2)cc2n3C(c3ccc(C4CC4)s3)Oc3cc(-c4cnc([C@@H]5CCCN5C(=O)[C@@H](NC(=O)OC)C(C)C)[nH]4)cc(F)c3-2)[nH]1)C1CN(C(=O)C2CC2)C1 (single isomer, unassigned) [Compound 267] | – | – | 0.08 nM | 3.9 pM | 0.013 nM | 3.5 pM | 0.012 nM | –
COC(=O)NC(C(=O)N1CCC[C@H]1c1ncc(-c2ccc3c(c2)cc2n3C(c3ccc(C4CC4)s3)Oc3cc(-c4cnc([C@@H]5CCCN5C(=O)[C@@H](NC(=O)OC)C(C)C)[nH]4)cc(F)c3-2)[nH]1)C1CCOC(C)(C)C1 (stereo partly shown) [Compound 218] | 2.6 pM | 0.004 nM | 0.055 nM | 3.1 pM | – | – | – | IC50 (HCV replicon 1AY93H; [1]): 0.004 nM
COC(=O)NC(C(=O)N1CCC[C@H]1c1ncc(-c2ccc3c(c2)cc2n3C(c3ccc(C4CC4)s3)Oc3cc(-c4cnc([C@@H]5C[C@H]6C[C@H]6N5C(=O)[C@@H](NC(=O)OC)C(C)C)[nH]4)cc(F)c3-2)[nH]1)C1C[C@@H](C)O[C@@H](C)C1 (single isomer, unassigned) [Compound 538] | – | – | – | – | – | – | – | IC50 (HCV replicon 1AY93H; [6]): 0.00703 nM; IC50 (HCV replicon 1A; HCV replicon 1A): 4.7 pM; IC50 (HCV replicon 2B; [7]): 0.0513 nM; IC50 (HCV replicon 1AQ30D; [8]): 0.136 nM; IC50 (HCV replicon 1B; [9]): 3.26 pM
CCc1ccc(C2Oc3cc(-c4cnc([C@@H]5CCCN5C(=O)[C@@H](NC(=O)OC)C(C)C)[nH]4)cc(C)c3-c3cc4cc(-c5cnc([C@@H]6CCCN6C(=O)[C@@H](NC(=O)OC)C6CCOCC6)[nH]5)ccc4n32)s1 (single isomer, unassigned) [Compound 560] | – | – | – | – | – | – | – | IC50 (HCV replicon 1AY93H; Hepatitis C virus, read-out: 1A Y93H IC50, HCV replicon 1A Y93H): 0.13 nM; IC50 (HCV replicon 1A; Hepatitis C virus, HCV replicon 1A): 7.1 pM; IC50 (HCV replicon 2B; Hepatitis C virus, read-out: 2B IC50, HCV replicon 2B): 0.0516 nM; IC50 (HCV replicon 1AQ30D; [8]): 1.56 nM; IC50 (HCV replicon 1B; [9]): 9.93 pM
COC(=O)NC(C(=O)N1CCC[C@H]1c1ncc(-c2ccc3c(c2)cc2n3C(c3cc(C)c(C)s3)Oc3cc(-c4cnc([C@@H]5CCCN5C(=O)[C@@H](NC(=O)OC)C(C)C)[nH]4)cc(F)c3-2)[nH]1)C(C)(C)F (single isomer, unassigned) [Compound 39] | – | 0.45 nM | 0.61 nM | 1 pM | 0.12 nM | 2 pM | – | –
COC(=O)NC(C(=O)N1CCC[C@H]1c1ncc(-c2ccc3c(c2)cc2n3C(c3cc4ccccc4s3)Oc3cc(-c4cnc([C@@H]5CCCN5C(=O)[C@@H](NC(=O)OC)C5CCOCC5)[nH]4)cc(F)c3-2)[nH]1)C(C)(C)F (single isomer, unassigned) [Compound 182] | – | – | – | 2 pM | 0.044 nM | 2 pM | 0.005 nM | IC50 (HCV replicon 1AQ30D; [5]): 0.049 nM
COC(=O)NC(C(=O)N1CCC[C@H]1c1ncc(-c2cc(F)c3c(c2)OC(c2ccc(C4CC4)s2)n2c-3cc3cc(-c4cnc([C@@H]5CCCN5C(=O)[C@@H](NC(=O)OC)C(C)C)[nH]4)ccc32)[nH]1)C1C[C@@H](C)O[C@@H](C)C1 (stereo partly shown) [Compound 188] | 1.7 pM | 0.005 nM | 0.02 nM | 1.2 pM | – | – | – | IC50 (HCV replicon 1AY93H; [1]): 0.002 nM
COC(=O)N[C@H](C(=O)N1C[C@H](F)C[C@H]1c1ncc(-c2ccc3c(c2)cc2n3C(c3cc4ccccc4s3)Oc3cc(-c4cnc([C@@H]5CCCN5C(=O)[C@@H](NC(=O)OC)C5CCOCC5)[nH]4)ccc3-2)[nH]1)C(C)C (single isomer, unassigned) [Compound 625] | – | – | – | – | – | – | – | IC50 (HCV replicon 1AY93H; [6]): 0.0049 nM; IC50 (HCV replicon 1A; HCV replicon 1A): 1.9 pM; IC50 (HCV replicon 2B; [7]): 0.145 nM; IC50 (HCV replicon 1AQ30D; [8]): 0.359 nM; IC50 (HCV replicon 1B; [9]): 3.1 pM
COC(=O)NC(C(=O)N1[C@@H]2C[C@@H]2C[C@H]1c1ncc(-c2ccc3c(c2)cc2n3C(c3ccc(CC4CC4)s3)Oc3cc(-c4cnc([C@@H]5CCCN5C(=O)[C@@H](NC(=O)OC)C(C)C)[nH]4)cc(F)c3-2)[nH]1)C1CCOC(C)(C)C1 (single isomer, unassigned) [Compound 418] | – | – | – | – | – | – | – | IC50 (HCV replicon 1AY93H; [6]): 0.093 nM; IC50 (HCV replicon 1A; HCV replicon 1A): 2.7 pM; IC50 (HCV replicon 2B; [7]): 0.16 nM; IC50 (HCV replicon 1AQ30D; read-out: 1A Q30D IC50, HCV replicon 1A Q30D): 0.862 nM; IC50 (HCV replicon 1B; HCV replicon 1B): 2.7 pM
COC(=O)N[C@H](C(=O)N1CCC[C@H]1c1ncc(-c2ccc3c(c2)OC(c2ccc(C4CC4)s2)n2c-3cc3cc(-c4cnc([C@@H]5CCCN5C(=O)[C@@H](NC(=O)OC)C(C)C)[nH]4)ccc32)[nH]1)C(C)C (stereo partly shown) [Compound 2] | 2.9 pM | 0.033 nM | 0.1 nM | 2.4 pM | – | – | – | IC50 (HCV replicon 1AY93H; [1]): 0.032 nM
COC(=O)N[C@H](C(=O)N1CCC[C@H]1c1ncc(-c2cc(F)c3c(c2)OC(c2ccc(CC(C)(C)OC)s2)n2c-3cc3cc(-c4cnc([C@@H]5CCCN5C(=O)[C@@H](NC(=O)OC)C(C)C)[nH]4)ccc32)[nH]1)C(C)C (single isomer, unassigned) [Compound 844] | – | – | – | – | – | – | – | IC50 (HCV replicon 1AY93H; HCV replicon 1A Y93H, read-out: 1A Y93H IC50): 0.023 nM; IC50 (HCV replicon 1A; HCV replicon 1A): 2.2 pM; IC50 (HCV replicon 2B; HCV replicon 2B, read-out: 2B IC50): 0.213 nM; IC50 (HCV replicon 1AQ30D; HCV replicon 1A Q30D, read-out: 1A Q30D IC50): 0.239 nM; IC50 (HCV replicon 1B; HCV replicon 1B): 2.6 pM
COC(=O)NC(C(=O)N1CCC[C@H]1c1ncc(-c2ccc3c(c2)cc2n3C(c3ccc(C(F)F)s3)Oc3cc(-c4cnc([C@@H]5CCCN5C(=O)[C@@H](NC(=O)OC)C(C)C)[nH]4)cc(F)c3-2)[nH]1)C1C[C@@H](C)O[C@@H](C)C1 (single isomer, unassigned) [Compound 266] | 1.1 pM | – | 0.051 nM | 1.5 pM | 0.003 nM | – | 0.008 nM | –
COC(=O)N[C@H](C(=O)N1CCC[C@H]1c1ncc(-c2cc(F)c3c(c2)OC(c2cc4c(s2)CCC(C)(C)O4)n2c-3cc3cc(-c4cnc([C@@H]5CCCN5C(=O)[C@@H](NC(=O)OC)C(C)C)[nH]4)ccc32)[nH]1)C(C)C (single isomer, unassigned) [Compound 397] | 3 pM | – | 0.0765 nM | 3 pM | 0.004 nM | – | 0.0164 nM | –
COC(=O)NC(C(=O)N1CCC[C@H]1c1ncc(-c2ccc3c(c2)cc2n3C(c3ccc(C(C)C)s3)Oc3cc(-c4cnc([C@@H]5CCCN5C(=O)[C@@H](NC(=O)OC)C(C)C)[nH]4)cc(C)c3-2)[nH]1)C1C[C@@H](C)O[C@@H](C)C1 (single isomer, unassigned) [Compound 366] | – | – | 0.0759 nM | 1.5 pM | 0.0123 nM | 1.9 pM | 0.0053 nM | –
COC(=O)N[C@H](C(=O)N1CCC[C@H]1c1ncc(-c2cc(F)c3c(c2)OC(c2ccc(C4CC4)s2)n2c-3cc3cc(-c4cnc([C@@H]5CCCN5C(=O)[C@@H](NC(=O)OC)C(C)C)[nH]4)ccc32)[nH]1)C(C)C (single isomer, unassigned) [Compound 6] | – | – | – | – | – | 1.9 pM | – | IC50 (HCV replicon 1AY93H; replicon 1AY93H, read-out: 1A Y93H IC50): 0.011 nM; IC50 (HCV replicon 2B; replicon 2B, read-out: 2B IC50): 0.028 nM; IC50 (HCV replicon 1AQ30D; replicon 1AQ30D, read-out: 1A Q30D IC50): 0.32 nM; IC50 (HCV replicon 1B; replicon 1B): 1.5 pM
COC(=O)N[C@H](C(=O)N1CCC[C@H]1c1ncc(-c2ccc3c(c2)cc2n3C(c3ccc(C4CC4)s3)Oc3cc(-c4cnc([C@@H]5CCCN5C(=O)[C@@H](NC(=O)OC)C5CCOCC5)[nH]4)cc(C)c3-2)[nH]1)C(C)C (single isomer, unassigned) [Compound 123] | – | – | – | – | 0.59 nM | 1.2 pM | 0.064 nM | IC50 (HCV replicon 1AQ30D; [5]): 0.38 nM; IC50 (HCV replicon 1B; replicon 1B): 3.1 pM
